# Measured values published in patent US11866439B2, “Ion channel modulators” (Praxis Precision Medicines, Inc., priority 2018, dated 2024).
# Key:
# Format in all cases: cell-based
# [1] = target: T1, hNaV1.1-WT (Homo sapiens, UniProt P35498); assay: Voltage step activated (peak) sodium current, PatchXpress, hNaV1.1-WT; conditions: HEK293, HEK-293, steps to 0 mV from half-inactivation holding potential, read-out: hNav1.1 Peak INa (percent inhibition)
# T1 construct: expressed in transfected cells; host or cells: HEK-293
# Experimental: (§1) Functional characterization of exemplary compounds to modulate INa expressed by various human isoforms and disease-causing mutant voltage-gated sodium channels was accomplished using the PatchXpress high throughput electrophysiology platform (Molecular Devices, Sunnyvale, CA). HEK-293 cells expressing a recombinant, human NaV1.X sodium channel (either hNaV1.6-WT, hNaV1.6-R223G, hNaV1.6-N984K, hNaV1.6-N1768D, hNaV1.1-WT, hNaV1.2-WT, hNaV1.5-WT, hNaV1.7-WT, or hNaV1.8-WT) were grown in DMEM/high-glucose Dulbecco's modified, 10% FBS, 2 mM sodium pyruvate, 10 mM HEPES and 400 μg/mL G418. Cells were grown to 50%-80% confluency prior to harvesting. Trypsinized cells were washed, allowed to recover for 1 hour and then resuspended in extracellular recording solution at a concentration of 1×10^6 cells/ml. The onboard liquid handling facility of the PatchXpress was used for dispensing cells and applying test compounds. INa amplitude and stability were determined by analyzing the peak current amplitude.
# (§2) Peak INa was evoked by depolarizing steps to 0 mV for 20 ms from a holding potential which evoked half-inactivation (e.g., −60 mV) at a frequency of 0.1 Hz. The voltage of half-inactivation was determined for each cell using a 5 sec prepulse to membrane potentials between −120 mV and −20 mV followed immediately by a voltage step to a fully activating membrane voltage (e.g., 0 mV). Following steady state block with exemplary compounds (e.g., as described herein), the degree of inhibition was measured using the average of three consecutive voltage steps. Percent steady-state inhibition of INa was calculated as: [(INa_compound)/(INa_control)]*100, where INa_compound and INa_control represent INa recorded in the presence or absence of compound, respectively.
# (§3) In this table, “A” indicates inhibition between less than 0% to 50% and “B” indicates inhibition of greater than 50% and N/A indicates the compound was not tested.
# [2] = target: T2, hNaV1.2-WT (Homo sapiens, UniProt Q99250); assay: Voltage step activated (peak) sodium current, PatchXpress, hNaV1.2-WT; conditions: HEK293, HEK-293, steps to 0 mV from half-inactivation holding potential, read-out: hNav1.2 Peak INa (percent inhibition)
# T2 construct: expressed in transfected cells; host or cells: HEK-293
# T2 sequence (Q99250 whole entry): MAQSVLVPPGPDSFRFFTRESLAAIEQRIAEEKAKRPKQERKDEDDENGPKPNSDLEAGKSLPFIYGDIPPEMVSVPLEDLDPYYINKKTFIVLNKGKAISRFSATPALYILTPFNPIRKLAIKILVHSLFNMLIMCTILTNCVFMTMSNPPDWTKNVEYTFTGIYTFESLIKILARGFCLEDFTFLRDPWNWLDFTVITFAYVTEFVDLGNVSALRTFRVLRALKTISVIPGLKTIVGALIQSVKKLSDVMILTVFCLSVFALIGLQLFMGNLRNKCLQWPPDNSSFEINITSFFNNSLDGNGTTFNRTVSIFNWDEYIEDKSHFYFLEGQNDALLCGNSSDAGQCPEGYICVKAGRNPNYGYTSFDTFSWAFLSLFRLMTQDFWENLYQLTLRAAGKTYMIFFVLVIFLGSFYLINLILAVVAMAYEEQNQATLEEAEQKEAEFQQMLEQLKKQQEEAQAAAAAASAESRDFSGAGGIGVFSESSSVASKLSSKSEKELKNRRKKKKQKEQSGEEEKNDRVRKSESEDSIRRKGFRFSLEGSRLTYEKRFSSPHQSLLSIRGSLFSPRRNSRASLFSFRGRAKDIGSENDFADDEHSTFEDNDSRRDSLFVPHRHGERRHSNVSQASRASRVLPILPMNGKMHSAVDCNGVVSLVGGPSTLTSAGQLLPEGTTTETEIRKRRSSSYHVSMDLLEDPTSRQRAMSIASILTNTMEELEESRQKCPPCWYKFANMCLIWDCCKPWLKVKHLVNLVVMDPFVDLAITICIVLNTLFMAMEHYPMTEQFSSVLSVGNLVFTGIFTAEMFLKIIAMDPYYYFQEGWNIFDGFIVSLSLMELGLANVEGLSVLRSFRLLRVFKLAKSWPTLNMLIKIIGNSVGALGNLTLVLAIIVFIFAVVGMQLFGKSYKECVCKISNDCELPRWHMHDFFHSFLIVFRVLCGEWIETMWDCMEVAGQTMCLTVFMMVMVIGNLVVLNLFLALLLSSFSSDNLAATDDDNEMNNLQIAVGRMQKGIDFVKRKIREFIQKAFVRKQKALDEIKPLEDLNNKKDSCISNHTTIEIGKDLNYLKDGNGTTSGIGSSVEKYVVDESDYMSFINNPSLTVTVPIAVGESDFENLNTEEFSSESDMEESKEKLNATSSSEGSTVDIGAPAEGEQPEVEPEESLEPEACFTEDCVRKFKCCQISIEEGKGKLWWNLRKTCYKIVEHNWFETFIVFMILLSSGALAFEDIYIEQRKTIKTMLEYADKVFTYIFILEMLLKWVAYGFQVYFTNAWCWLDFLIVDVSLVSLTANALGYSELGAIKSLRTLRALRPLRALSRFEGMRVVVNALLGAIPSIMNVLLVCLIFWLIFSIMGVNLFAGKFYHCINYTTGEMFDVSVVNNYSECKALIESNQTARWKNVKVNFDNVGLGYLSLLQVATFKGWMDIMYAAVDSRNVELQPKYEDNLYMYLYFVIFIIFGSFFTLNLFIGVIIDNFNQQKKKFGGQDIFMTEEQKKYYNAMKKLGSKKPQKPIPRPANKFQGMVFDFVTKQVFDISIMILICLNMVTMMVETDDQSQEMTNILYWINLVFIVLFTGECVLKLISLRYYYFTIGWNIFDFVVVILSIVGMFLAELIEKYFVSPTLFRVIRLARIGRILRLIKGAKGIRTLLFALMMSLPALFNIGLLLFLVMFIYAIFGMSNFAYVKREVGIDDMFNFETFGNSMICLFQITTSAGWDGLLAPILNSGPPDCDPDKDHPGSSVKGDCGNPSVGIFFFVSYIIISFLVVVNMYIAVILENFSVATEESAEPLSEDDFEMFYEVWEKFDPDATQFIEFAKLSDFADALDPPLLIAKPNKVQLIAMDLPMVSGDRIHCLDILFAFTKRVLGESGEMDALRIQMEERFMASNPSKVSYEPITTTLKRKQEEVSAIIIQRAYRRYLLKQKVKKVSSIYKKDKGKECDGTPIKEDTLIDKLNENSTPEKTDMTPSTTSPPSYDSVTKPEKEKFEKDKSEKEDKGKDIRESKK
# Experimental: as §1, §2, §3
# [3] = target: T3, human NaV1.6 (hNaV1.6) (Homo sapiens, UniProt Q9UQD0); assay: Late sodium current (INaL) inhibition, PatchXpress electrophysiology, hNaV1.6; conditions: 1 μM; HEK-293 cells expressing hNaV1.6; late current evoked by 300 nM ATX-II
# T3 construct: expressed in transfected cells; host or cells: HEK-293
# T3 sequence (Q9UQD0 whole entry): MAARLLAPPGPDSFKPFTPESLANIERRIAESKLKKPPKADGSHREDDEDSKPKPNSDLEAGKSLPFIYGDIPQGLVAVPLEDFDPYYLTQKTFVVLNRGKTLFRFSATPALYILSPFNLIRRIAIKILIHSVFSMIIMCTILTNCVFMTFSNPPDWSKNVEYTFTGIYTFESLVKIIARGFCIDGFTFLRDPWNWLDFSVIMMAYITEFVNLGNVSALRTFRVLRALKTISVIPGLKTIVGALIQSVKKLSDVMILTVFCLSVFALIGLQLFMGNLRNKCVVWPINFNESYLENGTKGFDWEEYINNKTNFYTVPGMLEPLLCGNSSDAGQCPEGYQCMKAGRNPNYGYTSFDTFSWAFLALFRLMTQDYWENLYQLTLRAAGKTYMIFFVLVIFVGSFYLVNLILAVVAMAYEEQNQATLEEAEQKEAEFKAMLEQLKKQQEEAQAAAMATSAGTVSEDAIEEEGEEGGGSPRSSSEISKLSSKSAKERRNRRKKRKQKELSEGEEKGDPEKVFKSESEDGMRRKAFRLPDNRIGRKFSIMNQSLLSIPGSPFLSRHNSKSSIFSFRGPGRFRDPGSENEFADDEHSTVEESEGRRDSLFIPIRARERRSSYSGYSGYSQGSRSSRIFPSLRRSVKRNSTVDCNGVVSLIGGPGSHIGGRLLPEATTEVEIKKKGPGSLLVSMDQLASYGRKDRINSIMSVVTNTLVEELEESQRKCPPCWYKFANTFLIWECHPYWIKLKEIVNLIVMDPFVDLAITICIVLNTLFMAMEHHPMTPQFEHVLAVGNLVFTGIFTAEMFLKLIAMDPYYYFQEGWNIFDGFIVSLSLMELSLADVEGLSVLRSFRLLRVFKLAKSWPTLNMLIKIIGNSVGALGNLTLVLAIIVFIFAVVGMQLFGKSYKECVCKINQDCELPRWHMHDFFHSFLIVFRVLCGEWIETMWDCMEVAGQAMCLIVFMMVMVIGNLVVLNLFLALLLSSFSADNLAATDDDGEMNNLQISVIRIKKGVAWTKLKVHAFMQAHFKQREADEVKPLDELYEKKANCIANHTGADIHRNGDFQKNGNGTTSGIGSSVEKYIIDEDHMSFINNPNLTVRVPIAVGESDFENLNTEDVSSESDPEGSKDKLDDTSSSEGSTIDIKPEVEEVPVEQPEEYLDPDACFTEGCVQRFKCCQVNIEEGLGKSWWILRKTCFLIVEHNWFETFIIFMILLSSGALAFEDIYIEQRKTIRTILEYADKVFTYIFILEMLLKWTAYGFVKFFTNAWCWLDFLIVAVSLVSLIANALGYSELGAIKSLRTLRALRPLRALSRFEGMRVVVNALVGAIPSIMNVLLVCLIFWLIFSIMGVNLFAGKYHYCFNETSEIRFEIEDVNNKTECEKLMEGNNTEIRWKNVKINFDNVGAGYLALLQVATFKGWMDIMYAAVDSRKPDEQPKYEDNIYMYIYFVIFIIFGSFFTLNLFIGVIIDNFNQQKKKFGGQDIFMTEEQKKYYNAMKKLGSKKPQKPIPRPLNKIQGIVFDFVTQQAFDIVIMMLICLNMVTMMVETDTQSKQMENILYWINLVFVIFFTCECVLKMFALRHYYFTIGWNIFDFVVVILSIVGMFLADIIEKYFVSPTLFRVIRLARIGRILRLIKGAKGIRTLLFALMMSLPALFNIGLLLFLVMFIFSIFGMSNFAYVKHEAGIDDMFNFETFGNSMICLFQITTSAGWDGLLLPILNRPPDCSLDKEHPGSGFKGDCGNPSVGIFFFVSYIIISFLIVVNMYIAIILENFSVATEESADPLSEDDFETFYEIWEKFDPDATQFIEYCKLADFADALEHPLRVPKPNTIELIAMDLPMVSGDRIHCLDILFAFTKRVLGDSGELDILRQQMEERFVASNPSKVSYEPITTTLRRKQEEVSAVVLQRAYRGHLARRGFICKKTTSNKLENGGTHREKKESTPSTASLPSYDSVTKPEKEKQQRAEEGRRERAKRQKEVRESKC
# Experimental: HEK-293 cells expressing recombinant, human NaV1.6 (hNaV1.6) were grown in DMEM/high-glucose Dulbecco's modified, 10% FBS, 2 mM sodium pyruvate, 10 mM HEPES and 400 μg/mL G418. Cells were grown to 50%-80% confluency prior to harvesting. […] The onboard liquid handling facility of the PatchXpress was used for dispensing cells and applying test compounds. […] INaL was evoked by depolarizing pulses to 0 mV for 200 ms from a non-inactivating holding potential (e.g., −120 mV) at a frequency of 0.1 Hz. INaL amplitude and stability were determined by analyzing the mean current amplitude over the final 20 ms of the test pulse. […] Percent steady-state inhibition of INaL was calculated as: [(INaL_compound)/(INaL_control)]*100, where INaL_compound and INaL_control represent INaL recorded in the presence or absence of compound, respectively.
inhibition at 1 µM [1] [%],inhibition at 1 µM [2] [%],Compound,NaV 1.6 Assay Data (percent inhibition of INaL at hNaV1.6) [3]
> 50,> 50,"COC(F)(F)c1nnc2cnc(-c3ccc(O[C@H](C)C(F)(F)F)nc3)cn12 [Compound 62, 3-[difluoro(methoxy)methyl]-6-[6-[(1R)-2,2,2-trifluoro-1-methyl-ethoxy]-3-pyridyl]-[1,2,4]triazolo[4,3-a]pyrazine]",
> 50,> 50,"COC(F)(F)c1nnc2cnc(-c3ccc(O[C@@H](C)C(F)(F)F)nc3)cn12 [Compound 59, 3-[difluoro(methoxy)methyl]-6-[6-[(1S)-2,2,2-trifluoro-1-methyl-ethoxy]-3-pyridyl]-[1,2,4]triazolo[4,3-a]pyrazine]",
> 50,> 50,"COC(F)(F)c1nnc2cnc(-c3ccc(OC(C)(C)C(F)(F)F)nc3)cn12 [Compound 56, 3-[difluoro(methoxy)methyl]-6-[6-(2,2,2-trifluoro-1,1-dimethyl-ethoxy)-3-pyridyl]-[1,2,4]triazolo[4,3-a]pyrazine]",
> 50,< 50,"COC(F)(F)c1nnc2cnc(-c3cnc(OCC(F)(F)F)c(F)c3)cn12 [Compound 53, 3-[difluoro(methoxy)methyl]-6-[5-fluoro-6-(2,2,2-trifluoroethoxy)-3-pyridyl]-[1,2,4]triazolo[4,3-a]pyrazine]",

# More lines, now with the values behind:
Compound,inhibition at 1 µM [1] [%],inhibition at 1 µM [2] [%],NaV 1.6 Assay Data (percent inhibition of INaL at hNaV1.6) [3]
"COC(F)(F)c1nnc2cnc(-c3cnc(O[C@@H](C)C(F)(F)F)c(F)c3)cn12 [Compound 6B, 3-[difluoro(methoxy)methyl]-6-[5-fluoro-6-[(1S)-2,2,2-trifluoro-1-methyl-ethoxy]-3-pyridyl]-[1,2,4]triazolo[4,3-a]pyrazine]",> 50,> 50,
"COC(F)(F)c1nnc2cnc(-c3cnc(OC4(C(F)(F)F)CCC4)c(F)c3)cn12 [Compound 11, 3-[difluoro(methoxy)methyl]-6-[5-fluoro-6-[1-(trifluoromethyl)cyclobutoxy]-3-pyridyl]-[1,2,4]triazolo[4,3-a]pyrazine]",> 50,,
COC(F)(F)c1nnc2cnc(-c3ccc(OC4(C(F)(F)F)CCC4)nc3)cn12 [Compound 57],,,C (“C” indicates inhibition of greater than 70%)
CCOC(F)(F)c1nnc2cnc(-c3cnc(OCC(F)(F)F)c(F)c3)cn12 [Compound 10],> 50,< 50,
"CCOC(F)(F)c1nnc2ccc(-c3cnc(OCC(F)(F)F)c(F)c3)cn12 [Compound 3, 3-[ethoxy(difluoro)methyl]-6-[5-fluoro-6-(2,2,2-trifluoroethoxy)-3-pyridyl]-[1,2,4]triazolo[4,3-a]pyridine]",> 50,,
